Laboratory results: patent US10022366B2, “Extending and maintaining micropore viability of microneedle treated skin with lipid biosynthesis inhibitors for sustained drug delivery” (University of Maryland, Baltimore, priority 2013, dated 2018)

Experiment: Reversibility/recovery of pores by transepidermal water loss (TEWL)
Format: in vivo, hairless guinea pigs (HGP)
Conditions: following 7-day treatment with FLU in vivo
From the text: The reversibility/recovery of the pores following removal of occlusion was studied using transepidermal water loss (TEWL) in a HGP model. Five different sites were chosen on the dorsal region of an animal. […] All sites were marked and cleaned on the day of the treatment. […] The concentration and amount of NTX gel and FLU were consistent with the PK studies. A placebo gel was used for site 3 and site 4. The placebo gel was similar in composition to the NTX gel with 10% PG, 1% benzyl alcohol and 3% HEC as the gelling agent. […] All sites were occluded using a transdermal patch (148) secured in place with Bioclusive™ tape. […] All experiments were conducted at least in triplicate. Recovery of the skin, (i.e., regeneration of the barrier function of the SC) was studied using TEWL. These studies were carried out to look at the effect of the local concentration of FLU on the recovery/healing of the skin following removal of occlusion.

With `CC(C)n1c(/C=C/C(O)CC(O)CC(=O)O)c(-c2ccc(F)cc2)c2ccccc21` (stereo not shown) [FLU, fluvastatin sodium] the “time of recovery/healing of skin upon removal of occlusion” value was 45 min.
